Measured values published in PubChem BioAssay (NCI).
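Dose response: 5 concentrations. Exposure: 48 h. Format: 96-well plates. Endpoint: linear interpolation; highest concentration if not reached. GI50 = concentration required for 50% inhibition of growth. At the TGI there is no net growth.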

Tests used:
Assay in all cases: inhibition of tumour cell growth, NCI panel, 48 h
[1] = system: LOX IMVI melanoma
[2] = system: HCC-2998 colon
[3] = system: A498 renal
[4] = system: MCF7 breast
[5] = system: SF-539 CNS
[6] = system: UO-31 renal
[7] = system: ACHN renal
[8] = system: SW-620 colon
[9] = system: IGROV1 ovarian
[10] = system: OVCAR-5 ovarian
[11] = system: UACC-257 melanoma
[12] = system: NCI/ADR-RES ovarian
[13] = system: T-47D breast
[14] = system: HOP-92 NSCLC
[15] = system: CCRF-CEM leukemia
[16] = system: OVCAR-4 ovarian
[17] = system: MDA-MB-435
[18] = system: EKVX NSCLC
[19] = system: OVCAR-8 ovarian
[20] = system: HCT-15 colon
[21] = system: KM12 colon
[22] = system: HOP-62 NSCLC
[23] = system: BT-549 breast
[24] = system: NCI-H460 lung
[25] = system: MDA-MB-468 breast
[26] = system: HS 578T breast
[27] = system: RPMI-8226 leukemia
[28] = system: K-562 leukemia
[29] = system: DU-145 prostate
[30] = system: TK-10 renal
[31] = system: CAKI-1 renal
[32] = system: PC-3 prostate
[33] = system: SK-MEL-5 melanoma
[34] = system: SK-OV-3 ovarian
[35] = system: MOLT-4 leukemia
[36] = system: RXF 393 renal
[37] = system: UACC-62 melanoma
[38] = system: NCI-H23 lung
[39] = system: SK-MEL-2 melanoma
[40] = system: SNB-75 CNS
[41] = system: NCI-H522 lung
[42] = system: SNB-19 CNS
[43] = system: U251 CNS
[44] = system: 786-0 renal
[45] = system: SK-MEL-28 melanoma
[46] = system: NCI-H226 lung
[47] = system: HCT-116 colon
[48] = system: OVCAR-3 ovarian
[49] = system: MALME-3M melanoma
[50] = system: HL-60(TB) leukemia
[51] = system: M14 melanoma
[52] = system: COLO 205 colon
[53] = system: HT29 colon
[54] = system: SF-268 CNS
[55] = system: SN12C renal
[56] = system: SR leukemia
[57] = system: SF-295 CNS
[58] = system: MDA-MB-231 breast
[59] = system: A549 NSCLC

Work on `COc1ccc(Nc2nc(N)n(Cc3cccc(Br)c3)n2)cc1` yielded a GI50 [1] of 31.5 µM, a TGI [1] greater than 100 µM and a GI50 [2] of 34.3 µM. The TGI [2] was greater than 100 µM, the GI50 [3] was 15.9 µM and the TGI [3] was 76.4 µM. For the same compound, the GI50 [4] was 26 µM, the TGI [4] was greater than 100 µM and the GI50 [5] was 29.6 µM. The TGI [5] was greater than 100 µM, the GI50 [6] was 17 µM and the TGI [6] was greater than 100 µM. It also gave a GI50 [7] of 29.7 µM, a TGI [7] greater than 100 µM and a GI50 [8] of 57.5 µM. The TGI [8] was greater than 100 µM, the GI50 [9] was 26.1 µM and the TGI [9] was greater than 100 µM. It also gave a GI50 [10] of 50.3 µM, a TGI [10] greater than 100 µM and a GI50 [11] of 38.3 µM. It also gave a TGI [11] greater than 100 µM, a GI50 [12] of 33.3 µM and a TGI [12] greater than 100 µM. The GI50 [13] was 44.5 µM, the TGI [13] was greater than 100 µM and the GI50 [14] was 11.4 µM. For the same compound, the TGI [14] was 68.4 µM, the GI50 [15] was 26.3 µM and the TGI [15] was greater than 100 µM. The GI50 [16] was 31.7 µM, the TGI [16] was greater than 100 µM and the GI50 [17] was 32.8 µM. The TGI [17] was greater than 100 µM, the GI50 [18] was 18 µM and the TGI [18] was greater than 100 µM. The GI50 [19] was 42.1 µM, the TGI [19] was greater than 100 µM and the GI50 [20] was 30.8 µM. The TGI [20] was greater than 100 µM, the GI50 [21] was 26.7 µM and the TGI [21] was greater than 100 µM. For the same compound, the GI50 [22] was greater than 100 µM, the TGI [22] was greater than 100 µM and the GI50 [23] was 14.5 µM. It also gave a TGI [23] greater than 100 µM, a GI50 [24] of 36.2 µM and a TGI [24] greater than 100 µM. The GI50 [25] was 19.3 µM, the TGI [25] was 65.5 µM and the GI50 [26] was 15.4 µM. For the same compound, the TGI [26] was greater than 100 µM, the GI50 [27] was 29.5 µM and the TGI [27] was greater than 100 µM. The GI50 [28] was 28.7 µM, the TGI [28] was greater than 100 µM and the GI50 [29] was 65.6 µM. For the same compound, the TGI [29] was greater than 100 µM, the GI50 [30] was 61.7 µM and the TGI [30] was greater than 100 µM. The GI50 [31] was 15 µM, the TGI [31] was greater than 100 µM and the GI50 [32] was 25.9 µM. The TGI [32] was greater than 100 µM, the GI50 [33] was 19.5 µM and the TGI [33] was 44 µM. The GI50 [34] was 93.2 µM, the TGI [34] was greater than 100 µM and the GI50 [35] was 26.9 µM. For the same compound, the TGI [35] was greater than 100 µM, the GI50 [36] was 14.3 µM and the TGI [36] was 66 µM. The GI50 [37] was 32.8 µM, the TGI [37] was greater than 100 µM and the GI50 [38] was 32.7 µM. It also gave a TGI [38] greater than 100 µM, a GI50 [39] of 31.1 µM and a TGI [39] greater than 100 µM. The GI50 [40] was 13.9 µM, the TGI [40] was greater than 100 µM and the GI50 [41] was 26.5 µM. It also gave a TGI [41] greater than 100 µM, a GI50 [42] of 48.3 µM and a TGI [42] greater than 100 µM. The GI50 [43] was 42.1 µM, the TGI [43] was greater than 100 µM and the GI50 [44] was 34.3 µM. The TGI [44] was greater than 100 µM, the GI50 [45] was 35.7 µM and the TGI [45] was greater than 100 µM. It also gave a GI50 [46] of 27.2 µM, a TGI [46] greater than 100 µM and a GI50 [47] of 27.5 µM. For the same compound, the TGI [47] was greater than 100 µM, the GI50 [48] was 35.8 µM and the TGI [48] was greater than 100 µM. The GI50 [49] was 27.2 µM, the TGI [49] was greater than 100 µM and the GI50 [50] was 18.4 µM. For the same compound, the TGI [50] was greater than 100 µM, the GI50 [51] was 36.8 µM and the TGI [51] was greater than 100 µM. The GI50 [52] was 48.4 µM, the TGI [52] was greater than 100 µM and the GI50 [53] was 64.2 µM. The TGI [53] was greater than 100 µM, the GI50 [54] was 27.2 µM and the TGI [54] was greater than 100 µM. For the same compound, the GI50 [55] was 33.4 µM, the TGI [55] was greater than 100 µM and the GI50 [56] was 91.7 µM. It also gave a TGI [56] greater than 100 µM, a GI50 [57] of 28 µM and a TGI [57] greater than 100 µM. The GI50 [58] was 37.1 µM, the TGI [58] was greater than 100 µM and the GI50 [59] was 36 µM. It also gave a TGI [59] greater than 100 µM.
For `N#Cc1c(NC(=O)c2ccc(C(F)(F)F)cc2)sc2c1CCC(=O)C2`, the GI50 [1] was 0.35 µM, the TGI [1] was 1.48 µM and the GI50 [2] was 1.43 µM. The TGI [2] was 2.93 µM, the GI50 [3] was 24.6 µM and the TGI [3] was 87.5 µM. The GI50 [4] was 0.553 µM, the TGI [4] was 10.1 µM and the GI50 [5] was 0.3 µM. It also gave a TGI [5] of 1.06 µM, a GI50 [6] of 0.467 µM and a TGI [6] of 1.7 µM. It also gave a GI50 [7] of 0.39 µM, a TGI [7] of 1.4 µM and a GI50 [8] of 0.411 µM. It also gave a TGI [8] of 1.82 µM, a GI50 [9] of 1.23 µM and a TGI [9] of 2.74 µM. The GI50 [10] was 1.68 µM, the TGI [10] was 3.5 µM and the GI50 [11] was 2.15 µM. The TGI [11] was greater than 22.8 µM, the GI50 [12] was 0.718 µM and the TGI [12] was 2.93 µM. It also gave a GI50 [13] of 0.322 µM, a TGI [13] of 1.38 µM and a GI50 [14] of 1.19 µM. The TGI [14] was 3.56 µM, the GI50 [15] was 0.345 µM and the TGI [15] was greater than 33.3 µM. For the same compound, the GI50 [16] was 1.12 µM, the TGI [16] was 2.78 µM and the GI50 [17] was 1.4 µM. It also gave a TGI [17] of 2.97 µM, a GI50 [18] of 1.32 µM and a TGI [18] of 3.66 µM. For the same compound, the GI50 [19] was 1.39 µM, the TGI [19] was 5.9 µM and the GI50 [20] was 0.362 µM. For the same compound, the TGI [20] was 1.45 µM, the GI50 [21] was 1.28 µM and the TGI [21] was 4.7 µM. The GI50 [22] was 2.84 µM, the TGI [22] was 11.4 µM and the GI50 [23] was 1.07 µM. The TGI [23] was 2.51 µM, the GI50 [24] was 2.86 µM and the TGI [24] was 11.8 µM. For the same compound, the GI50 [25] was 0.557 µM, the TGI [25] was 2.27 µM and the GI50 [26] was 1.17 µM. It also gave a TGI [26] of 5.02 µM, a GI50 [27] of 0.273 µM and a TGI [27] greater than 100 µM. For the same compound, the GI50 [28] was 0.316 µM, the GI50 [29] was 3.75 µM and the TGI [29] was greater than 100 µM. For the same compound, the GI50 [30] was 1.05 µM, the TGI [30] was 6.85 µM and the GI50 [31] was 0.572 µM. The TGI [31] was 2.06 µM, the GI50 [32] was 0.41 µM and the TGI [32] was 2.79 µM. For the same compound, the GI50 [33] was 1.35 µM, the TGI [33] was 2.64 µM and the GI50 [34] was 2.43 µM. The TGI [34] was 6.87 µM, the GI50 [35] was 0.419 µM and the TGI [35] was greater than 30.1 µM. The GI50 [36] was 0.271 µM, the TGI [36] was 1.23 µM and the GI50 [37] was 0.691 µM. The TGI [37] was 2 µM, the GI50 [38] was 0.402 µM and the TGI [38] was 2.09 µM. It also gave a GI50 [39] of 2.07 µM, a TGI [39] of 4.89 µM and a GI50 [40] of 1.91 µM. The TGI [40] was 5.25 µM, the GI50 [41] was 0.273 µM and the TGI [41] was 0.951 µM. The GI50 [42] was 2.2 µM, the TGI [42] was 13.1 µM and the GI50 [43] was 0.622 µM. It also gave a TGI [43] of 2.47 µM, a GI50 [44] of 2.5 µM and a TGI [44] greater than 41.2 µM. It also gave a GI50 [45] of 0.82 µM, a TGI [45] of 2.11 µM and a GI50 [46] of 2.18 µM. For the same compound, the TGI [46] was 7.91 µM, the GI50 [47] was 0.359 µM and the TGI [47] was 2.09 µM. For the same compound, the GI50 [48] was 0.844 µM, the TGI [48] was 3.2 µM and the GI50 [49] was 1.15 µM. For the same compound, the TGI [49] was 2.73 µM, the GI50 [50] was 0.436 µM and the TGI [50] was greater than 33.2 µM. The GI50 [51] was 1.01 µM, the TGI [51] was 2.85 µM and the GI50 [52] was 0.951 µM. For the same compound, the TGI [52] was 2.33 µM, the GI50 [53] was 0.465 µM and the TGI [53] was 2.06 µM. For the same compound, the GI50 [54] was 2.16 µM, the TGI [54] was 11.5 µM and the GI50 [55] was 0.539 µM. For the same compound, the TGI [55] was 3.2 µM, the GI50 [56] was 0.522 µM and the TGI [56] was greater than 100 µM. The GI50 [57] was 1.29 µM, the TGI [57] was 2.96 µM and the GI50 [58] was 0.701 µM. It also gave a TGI [58] of 1.98 µM, a GI50 [59] of 3.52 µM and a TGI [59] of 16.3 µM.
